Results from ChEMBL document CHEMBL1201862, “PubChem BioAssay data set” (2004).
Calls of active or inactive are those of the source.

Legend:
[1] = target: Delta-type opioid receptor (Homo sapiens, UniProt P41143); assay: Counterscreen for agonists of heterodimerization of the mu 1 (OPRM1) and delta 1 (OPRD1) opioid receptors: Luminescence-based cell-based high throughput dose response assay to identify agonists of OPRD1 homodimerization. [Related pubchem assays (depositor defined):AID504326, AID504355, AID504692, AID504904, AID504905]; type: functional
Chain of Delta-type opioid receptor (P41143 whole entry): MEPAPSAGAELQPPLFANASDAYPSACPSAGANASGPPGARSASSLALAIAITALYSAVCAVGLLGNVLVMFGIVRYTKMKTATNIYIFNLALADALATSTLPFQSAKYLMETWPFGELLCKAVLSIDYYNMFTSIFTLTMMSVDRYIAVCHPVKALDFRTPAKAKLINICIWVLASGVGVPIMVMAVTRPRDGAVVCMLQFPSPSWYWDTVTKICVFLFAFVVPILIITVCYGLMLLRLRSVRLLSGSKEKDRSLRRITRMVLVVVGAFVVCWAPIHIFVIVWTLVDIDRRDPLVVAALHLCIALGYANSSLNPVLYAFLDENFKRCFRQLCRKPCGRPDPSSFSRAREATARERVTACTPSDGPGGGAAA

[2] = target: 5-hydroxytryptamine receptor 5A (Homo sapiens, UniProt P47898); assay: Counterscreen for agonists of OPRM1-OPRD1 heterodimerization: luminescence-based cell-based high throughput dose response assay to identify agonists of 5-hydroxytryptamine (serotonin) 5A receptor (HTR5A). [Related pubchem assays (depositor defined):AID504326, AID504355, AID504692, AID504904, AID504905]; type: functional
Chain of 5-hydroxytryptamine receptor 5A (P47898 whole entry): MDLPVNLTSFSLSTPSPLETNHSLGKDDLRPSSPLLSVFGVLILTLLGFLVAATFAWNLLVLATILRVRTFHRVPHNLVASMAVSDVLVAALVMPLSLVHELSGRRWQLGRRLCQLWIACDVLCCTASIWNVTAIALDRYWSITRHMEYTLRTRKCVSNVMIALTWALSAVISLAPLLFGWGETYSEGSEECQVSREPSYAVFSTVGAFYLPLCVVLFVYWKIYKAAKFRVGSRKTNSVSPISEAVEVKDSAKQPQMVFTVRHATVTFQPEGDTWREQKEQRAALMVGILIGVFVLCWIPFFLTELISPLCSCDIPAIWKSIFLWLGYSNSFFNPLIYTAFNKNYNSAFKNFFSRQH

Mu-type opioid receptor = Mu-type opioid receptor (Homo sapiens, UniProt P35372); assay: Counterscreen for agonists of heterodimerization of the mu 1 (OPRM1) and delta 1 (OPRD1) opioid receptors: Luminescence-based cell-based high throughput dose response assay to identify agonists of OPRM1 homodimerization.; type: functional;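 note: U2OS cells expressing OPRM1 and beta-arrestin as split beta-galactosidase partners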
Chain of Mu-type opioid receptor (P35372 whole entry): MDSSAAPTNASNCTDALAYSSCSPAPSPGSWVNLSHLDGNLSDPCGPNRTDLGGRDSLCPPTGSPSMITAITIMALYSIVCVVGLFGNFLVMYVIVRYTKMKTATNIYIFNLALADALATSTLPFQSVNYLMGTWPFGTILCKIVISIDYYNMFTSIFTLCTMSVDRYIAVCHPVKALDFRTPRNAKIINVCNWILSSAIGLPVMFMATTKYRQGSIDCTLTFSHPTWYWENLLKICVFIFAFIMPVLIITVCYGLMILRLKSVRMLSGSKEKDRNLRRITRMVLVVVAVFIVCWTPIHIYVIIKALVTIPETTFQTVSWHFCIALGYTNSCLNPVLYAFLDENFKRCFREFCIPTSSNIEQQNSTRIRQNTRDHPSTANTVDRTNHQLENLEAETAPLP

[3] = target: ATP-dependent molecular chaperone HSP82 (Candida albicans (strain WO-1) (Yeast), UniProt C4YTQ8); assay: steroid-induced GRE reporter decrease in yeast – S. cerevisiae, luminescence, Hsp90 inhibitor project, dose response (AID 2400); type: functional, cell-based;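 note: beta-galactosidase luminescence from glucocorticoid response element reporter as proxy for Hsp90 function; inhibitor potency where signal loss means Hsp90 inhibition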
Chain of ATP-dependent molecular chaperone HSP82 (C4YTQ8 whole entry): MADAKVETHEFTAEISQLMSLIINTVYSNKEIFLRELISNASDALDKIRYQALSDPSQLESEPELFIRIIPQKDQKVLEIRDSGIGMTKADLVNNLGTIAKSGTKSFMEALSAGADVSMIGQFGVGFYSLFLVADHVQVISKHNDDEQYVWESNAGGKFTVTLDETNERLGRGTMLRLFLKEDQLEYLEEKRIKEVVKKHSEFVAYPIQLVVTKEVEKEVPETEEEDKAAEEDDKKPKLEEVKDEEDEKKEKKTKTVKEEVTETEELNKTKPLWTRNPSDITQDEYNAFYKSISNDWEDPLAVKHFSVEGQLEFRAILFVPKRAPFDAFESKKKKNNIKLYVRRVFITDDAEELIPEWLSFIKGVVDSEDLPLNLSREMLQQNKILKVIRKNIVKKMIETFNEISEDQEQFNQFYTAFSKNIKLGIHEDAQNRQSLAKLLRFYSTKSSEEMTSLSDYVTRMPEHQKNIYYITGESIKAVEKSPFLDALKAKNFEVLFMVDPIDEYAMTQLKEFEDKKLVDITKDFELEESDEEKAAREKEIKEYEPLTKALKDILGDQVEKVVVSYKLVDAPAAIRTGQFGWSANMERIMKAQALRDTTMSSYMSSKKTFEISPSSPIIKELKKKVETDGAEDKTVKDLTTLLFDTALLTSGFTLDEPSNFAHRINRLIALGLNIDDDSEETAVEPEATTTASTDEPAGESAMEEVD

[4] = NIH-3T3 fibroblast cytotoxicity, dose response, cytotoxicity control, cell-based, fluorescence, Alamar Blue, secondary assay (AID 2327); type: functional;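 note: NIH-3T3 mouse fibroblasts cultured with fluconazole at 8 µg/mL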
[5] = fluconazole-exposed Candida albicans growth modulators – fluorescence, retest, confirmation (AID 2467); type: functional, cell-based
[6] = target: T1, Serine/threonine-protein phosphatase (Candida dubliniensis (strain CD36 / CBS 7987 / NCPF 3949 / NRRLY-17841) (Yeast), UniProt B9W6M3); assay: blockers of CaCl2-induced CDRE-lacZ signaling – S. cerevisiae, luminescence, secondary, dose response (AID 2388); type: functional, cell-based;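 note: yeast reporter cells carrying a calcineurin-responsive lacZ construct stimulated with calcium chloride; luminescent beta-galactosidase reporter signal in whole cells rather than isolated phosphatase activity; potency for inhibition where a drop in reporter signal means calcineurin blockade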
T1 sequence (B9W6M3 whole entry): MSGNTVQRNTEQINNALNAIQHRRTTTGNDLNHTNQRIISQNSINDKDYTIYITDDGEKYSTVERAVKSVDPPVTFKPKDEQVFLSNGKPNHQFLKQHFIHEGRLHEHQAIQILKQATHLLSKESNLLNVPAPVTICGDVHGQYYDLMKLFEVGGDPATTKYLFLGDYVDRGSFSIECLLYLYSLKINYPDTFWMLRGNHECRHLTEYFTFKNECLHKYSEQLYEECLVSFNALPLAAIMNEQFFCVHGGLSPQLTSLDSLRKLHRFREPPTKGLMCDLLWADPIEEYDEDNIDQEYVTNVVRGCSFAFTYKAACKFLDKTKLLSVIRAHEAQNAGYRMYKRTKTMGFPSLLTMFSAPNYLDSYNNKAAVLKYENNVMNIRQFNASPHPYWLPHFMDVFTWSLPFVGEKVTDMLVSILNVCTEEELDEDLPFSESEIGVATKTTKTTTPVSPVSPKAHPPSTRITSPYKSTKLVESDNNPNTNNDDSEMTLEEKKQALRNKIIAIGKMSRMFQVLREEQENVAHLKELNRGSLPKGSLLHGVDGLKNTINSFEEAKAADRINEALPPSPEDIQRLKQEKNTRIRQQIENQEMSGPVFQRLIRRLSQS

[7] = Luminescence Cell-Based Dose Retest to Confirm Inhibitors of Cancer Stem Cells. [Related pubchem assays (depositor defined):AID2717, AID2721]; type: functional; conditions: Homo sapiens
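Throughout, for AC50: cells exposed to compound for roughly 70 hours or longer before luminescence read.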

SMILES	EC50 [1]	EC50 [2]	EC50 (Mu-type opioid receptor)	EC50 [3]	EC50 [4]	EC50 [5]	EC50 [6]	AC50 [7]
Cc1ccc2[nH]c(SC(C(=O)Nc3ccc(F)cc3)c3ccccc3)nc2c1 (stereo unspecified)	> 92.5 µM (inactive)	> 92.5 µM (inactive)	> 92.5 µM (inactive)					
CCCCCCSc1nnc2nc(O)cc(N)n12				> 150 µM (inactive)	79.9 µM (active)	0.52 µM (active)	> 180 µM (inactive)	
CC1(NC(=O)CC(c2ccccc2)(c2ccccc2)c2ccccc2)CCN(CCCc2ccccc2)C1=O (stereo unspecified)	> 92.5 µM (inactive)	> 92.5 µM (inactive)	> 92.5 µM (inactive)					5.42 µM (active)
